# Measurements as given in patent US5140009A (Tap Pharmaceuticals, Inc., priority 1990, dated 1992).
# Numbered stars: 1 amine (or outer) side, 2 acyl side, 3 side chain; on linkers, the order of the positions; unused ones are H or OH. Square brackets hold non-standard residues; d marks the D form. Peptide text beside a SMILES is read from it. * marks the point of attachment. Propanoyl(3-(4-F-phenyl)) = O=C(CCc1ccc(F)cc1)*; Propanoyl(3-(4-Cl-Ph)) = O=C(CCc1ccc(Cl)cc1)*; X10 = O=C([C@@H](Cc1cncs1)N[*:1])[*:2]; 1Nal = N[C@@H](Cc1cccc2ccccc12)C(=O)O; d1Nal = N[C@H](Cc1cccc2ccccc12)C(=O)O; d2Nal = N[C@H](Cc1ccc2ccccc2c1)C(=O)O; dLys(iPr) = CC(C)NCCCC[C@@H](N)C(=O)O; d(hCit) = NC(=O)NCCCC[C@@H](N)C(=O)O; Lys(iPr) = CC(C)NCCCC[C@H](N)C(=O)O; NMeY = CN[C@@H](Cc1ccc(O)cc1)C(=O)O; dBta = N[C@H](Cc1csc2ccccc12)C(=O)O; NMeF = CN[C@@H](Cc1ccccc1)C(=O)O; d3Pal = N[C@H](Cc1cccnc1)C(=O)O; Cha = N[C@@H](CC1CCCCC1)C(=O)O; NMeL = CN[C@@H](CC(C)C)C(=O)O; Nicotinoyl = O=C(c1cccnc1)*; dOrn = NCCC[C@@H](N)C(=O)O
# Target: T1, LHRH receptors (Rattus norvegicus, UniProt P30969)
# T1 construct: Pituitary membranes containing LHRH receptors are prepared in batches from quick-frozen rat pituitaries; tissue Hilltop Labs; host or cells: rat pituitary membranes
# T1 sequence (P30969 1-327): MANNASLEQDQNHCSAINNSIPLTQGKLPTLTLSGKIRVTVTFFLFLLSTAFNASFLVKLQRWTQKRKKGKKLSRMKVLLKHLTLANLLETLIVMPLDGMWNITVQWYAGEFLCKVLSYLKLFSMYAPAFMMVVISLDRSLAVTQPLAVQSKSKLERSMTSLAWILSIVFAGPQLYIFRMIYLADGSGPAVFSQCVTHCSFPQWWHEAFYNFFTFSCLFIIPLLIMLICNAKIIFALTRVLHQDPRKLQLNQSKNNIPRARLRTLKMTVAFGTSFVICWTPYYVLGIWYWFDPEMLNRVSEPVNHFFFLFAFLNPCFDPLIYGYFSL
# Test: Receptor Binding (radioligand receptor binding assay)
# Settings: table 4; rat pituitary membranes, radioligand 50 pM, 2 hours at 4° C.; read-out: Receptor Binding pkI (converted)
row,Ki [pM],SMILES
1,9.55,"CC(C)C[C@H](NC(=O)[C@@H](CCCCNC(N)=O)NC(=O)[C@H](Cc1ccc(O)cc1)N(C)C(=O)[C@H](CO)NC(=O)[C@@H](Cc1cccc2ccccc12)NC(=O)CCc1ccc(F)cc1)C(=O)N[C@@H](CCCNC(=N)N)C(=O)N1CCC[C@H]1C(=O)N[C@H](C)C(N)=O [Compound 178, (3-10)[N-(3-(4-Fluorophenyl)propionyl)-D-1-Nal^3 -NMeTyr^5 -D-Hcit^6 -D-Ala^10]LHRH] ({Propanoyl(3-(4-F-phenyl))}-[d1Nal]S[NMeY][d(hCit)]LRP[dA]-NH2)"
2,5.5,"CC(C)C[C@H](NC(=O)[C@@H](CO)NC(=O)[C@H](Cc1ccc(O)cc1)N(C)C(=O)[C@H](CO)NC(=O)[C@H](Cc1cccc2ccccc12)NC(=O)CCc1ccc(F)cc1)C(=O)N[C@@H](CCCNC(=N)N)C(=O)N1CCC[C@H]1C(=O)N[C@H](C)C(N)=O [Compound 180, (3-10)[N-(3-(4-Fluorophenyl)propionyl)-1-Nal^3 -NMeTyr^5 -D-Ser^6 -D-Ala^10]LHRH] ({Propanoyl(3-(4-F-phenyl))}-[1Nal]S[NMeY][dS]LRP[dA]-NH2)"
3,3.98,"CC(C)C[C@H](NC(=O)[C@@H](CO)NC(=O)[C@H](Cc1ccc(O)cc1)N(C)C(=O)[C@H](CO)NC(=O)[C@@H](Cc1cccc2ccccc12)NC(=O)CCc1ccc(F)cc1)C(=O)N[C@@H](CCCNC(=N)N)C(=O)N1CCC[C@H]1C(=O)N[C@H](C)C(N)=O [Compound 181, (3-10)[N-(3-(4-Fluorophenyl)propionyl)-D-1-Nal^3 -NMeTyr^5 -D-Ser^6 -D-Ala^10]LHRH] ({Propanoyl(3-(4-F-phenyl))}-[d1Nal]S[NMeY][dS]LRP[dA]-NH2)"
4,26.3,"CC(C)C[C@H](NC(=O)[C@@H](CCCCN)NC(=O)[C@H](Cc1ccc(O)cc1)N(C)C(=O)[C@H](CO)NC(=O)[C@@H](Cc1cncs1)NC(=O)CCc1ccc(F)cc1)C(=O)N[C@@H](CCCNC(=N)N)C(=O)N1CCC[C@H]1C(=O)N[C@H](C)C(N)=O [Compound 183, (3-10)[N-(3-(4-Fluorophenyl)propionyl)-D-Thiaz^3 -NMeTyr^5 -D-Lys^6 -D-Ala^10]LHRH] ({Propanoyl(3-(4-F-phenyl))}-[X10]S[NMeY][dK]LRP[dA]-NH2)"
5,6.31,"CC(C)C[C@H](NC(=O)[C@@H](Cc1cccnc1)NC(=O)[C@H](Cc1ccc(O)cc1)N(C)C(=O)[C@H](CO)NC(=O)[C@@H](Cc1cccc2ccccc12)NC(=O)CCc1ccc(F)cc1)C(=O)N[C@@H](CCCNC(=N)N)C(=O)N1CCC[C@H]1C(=O)N[C@H](C)C(N)=O [Compound 184, (3-10)[N-(3-(4-Fluorophenyl)propionyl)-D-1-Nal^3 -NMeTyr^5 -D-3-Pal^6 -D-Ala^10]LHRH] ({Propanoyl(3-(4-F-phenyl))}-[d1Nal]S[NMeY][d3Pal]LRP[dA]-NH2)"
6,15.5,"C[C@@H](NC(=O)[C@@H]1CCCN1C(=O)[C@H](CCCNC(=N)N)NC(=O)[C@H](CC1CCCCC1)NC(=O)[C@@H](CCCCN)NC(=O)[C@H](Cc1ccc(O)cc1)N(C)C(=O)[C@H](CO)NC(=O)[C@@H](Cc1cccc2ccccc12)NC(=O)CCc1ccc(F)cc1)C(N)=O [Compound 185, (3-10)[N-(3-(4-Fluorophenyl)propionyl)-D-1-Nal^3 -NMeTyr^5 -D-Lys^6 -Cha^7 -D-Ala^10]LHRH] ({Propanoyl(3-(4-F-phenyl))}-[d1Nal]S[NMeY][dK][Cha]RP[dA]-NH2)"
7,33.9,"CC(C)C[C@H](NC(=O)[C@@H](CCCCN)NC(=O)[C@H](Cc1ccc(O)cc1)N(C)C(=O)[C@H](CO)NC(=O)[C@@H](Cc1ccc2ccccc2c1)NC(=O)CCc1ccc(F)cc1)C(=O)N[C@@H](CCCNC(=N)N)C(=O)N1CCC[C@H]1C(=O)N[C@H](C)C(N)=O [Compound 186, (3-10)[N-(3-(4-Fluorophenyl)propionyl)-D-2-Nal^3 -NMeTyr^5 -D-Lys^6 -D-Ala^10]LHRH] ({Propanoyl(3-(4-F-phenyl))}-[d2Nal]S[NMeY][dK]LRP[dA]-NH2)"
8,22.4,"CC(C)C[C@H](NC(=O)[C@@H](CCCCNC(=O)c1cccnc1)NC(=O)[C@H](Cc1ccc(O)cc1)N(C)C(=O)[C@H](CO)NC(=O)[C@@H](Cc1ccc2ccccc2c1)NC(=O)CCc1ccc(F)cc1)C(=O)N[C@@H](CCCNC(=N)N)C(=O)N1CCC[C@H]1C(=O)N[C@H](C)C(N)=O [Compound 187, (3-10)[N-(3-(4-Fluorophenyl)propionyl)-D-2-Nal^3 -NMeTyr^5 -D-Lys^6 (N-epsilon-nicotinyl)-D-Ala^10]LHRH] ({Propanoyl(3-(4-F-phenyl))}-[d2Nal]S[NMeY][dK](Nicotinoyl)LRP[dA]-NH2)"
9,3.31,"COc1ccc(C[C@H](NC(=O)[C@H](CO)NC(=O)[C@@H](Cc2cccc3ccccc23)NC(=O)CCc2ccc(F)cc2)C(=O)N[C@H](CCCCN)C(=O)N[C@@H](CC(C)C)C(=O)N[C@@H](CCCNC(=N)N)C(=O)N2CCC[C@H]2C(=O)N[C@H](C)C(N)=O)cc1 [Compound 188, (3-10)[N-(3-(4-Fluorophenyl)propionyl)-D-1-Nal^3 -Tyr^5 (OMe)-D-Lys^6 -D-Ala^10]LHRH] ({Propanoyl(3-(4-F-phenyl))}-[d1Nal]SY(Me)[dK]LRP[dA]-NH2)"
10,5.5,"CC(C)C[C@H](NC(=O)[C@@H](CCCCN)NC(=O)[C@H](Cc1ccccc1)N(C)C(=O)[C@H](CO)NC(=O)[C@@H](Cc1cccc2ccccc12)NC(=O)CCc1ccc(F)cc1)C(=O)N[C@@H](CCCNC(=N)N)C(=O)N1CCC[C@H]1C(=O)N[C@H](C)C(N)=O [Compound 189, (3-10)[N-(3-(4-Fluorophenyl)propionyl)-D-1-Nal^3 -NMePhe^5 -D-Lys^6 -D-Ala^10]LHRH] ({Propanoyl(3-(4-F-phenyl))}-[d1Nal]S[NMeF][dK]LRP[dA]-NH2)"
11,15.8,"CC(C)C[C@@H](C(=O)N[C@@H](CCCNC(=N)N)C(=O)N1CCC[C@H]1C(=O)N[C@H](C)C(N)=O)N(C)C(=O)[C@@H](CCCCN)NC(=O)[C@H](Cc1ccc(O)cc1)N(C)C(=O)[C@H](CO)NC(=O)[C@@H](Cc1cccc2ccccc12)NC(=O)CCc1ccc(F)cc1 [Compound 190, (3-10)[N-(3-(4-Fluorophenyl)propionyl)-D-1-Nal^3 -NMeTyr^5 -D-Lys^6 -NMeLeu^7 -D-Ala^10]LHRH] ({Propanoyl(3-(4-F-phenyl))}-[d1Nal]S[NMeY][dK][NMeL]RP[dA]-NH2)"
12,9.55,CC(C)C[C@H](NC(=O)[C@@H](CCCCNC(=O)c1cccnc1)NC(=O)[C@H](CCCCNC(=O)c1cccnc1)NC(=O)[C@H](CO)NC(=O)[C@@H](Cc1cccc2ccccc12)NC(=O)CCc1ccc(F)cc1)C(=O)N[C@@H](CCCNC(=N)N)C(=O)N1CCC[C@H]1C(=O)N[C@H](C)C(N)=O [Compound 191] ({Propanoyl(3-(4-F-phenyl))}-[d1Nal]SK(Nicotinoyl)[dK](Nicotinoyl)LRP[dA]-NH2)
13,6.76,"CC(C)C[C@H](NC(=O)[C@@H](CCCN)NC(=O)[C@H](Cc1ccc(O)cc1)N(C)C(=O)[C@H](CO)NC(=O)[C@@H](Cc1cccc2ccccc12)NC(=O)CCc1ccc(F)cc1)C(=O)N[C@@H](CCCNC(=N)N)C(=O)N1CCC[C@H]1C(=O)N[C@H](C)C(N)=O [Compound 192, (3-10)[N-(3-(4-Fluorophenyl)propionyl)-D-1-Nal^3 -NMeTyr^5 -D-Orn^6 -D-Ala^10]LHRH] ({Propanoyl(3-(4-F-phenyl))}-[d1Nal]S[NMeY][dOrn]LRP[dA]-NH2)"
14,191,"CC(C)C[C@H](NC(=O)[C@@H](CCCCNC(=O)c1cccnc1)NC(=O)[C@H](Cc1ccc(O)cc1)N(C)C(=O)[C@H](CO)NC(=O)[C@@H](Cc1cccnc1)NC(=O)CCc1ccc(Cl)cc1)C(=O)N[C@@H](CCCCNC(C)C)C(=O)N1CCC[C@H]1C(=O)N[C@H](C)C(N)=O [Compound 194, (3-10)[N-(3-(4-Chlorophenyl)propionyl)-D-3-Pal^3 -NMeTyr^5 -D-Lys^6 (N-epsilon-nicotinyl)-Lys^8 (N-epsilon-isopropyl)-D-Ala^10]LHRH] ({Propanoyl(3-(4-Cl-Ph))}-[d3Pal]S[NMeY][dK](Nicotinoyl)L[Lys(iPr)]P[dA]-NH2)"
15,23.4,"CC(C)C[C@H](NC(=O)[C@@H](Cc1ccc(O)cc1)NC(=O)[C@H](Cc1ccc(O)cc1)N(C)C(=O)[C@H](CO)NC(=O)[C@@H](Cc1c[nH]c2ccccc12)NC(=O)CCc1ccc(F)cc1)C(=O)N[C@@H](CCCCNC(C)C)C(=O)N1CCC[C@H]1C(=O)N[C@H](C)C(N)=O [Compound 196, (3-10)[N-(3-(4-Fluorophenyl)propionyl)-D-Trp^3 -NMeTyr^5 -D-Tyr^6 -Lys^8 (N-epsilon-isopropyl)-D-Ala^10]LHRH] ({Propanoyl(3-(4-F-phenyl))}-[dW]S[NMeY][dY]L[Lys(iPr)]P[dA]-NH2)"
16,9.33,"CC(C)C[C@H](NC(=O)[C@@H](CCCCNC(C)C)NC(=O)[C@H](Cc1ccc(O)cc1)N(C)C(=O)[C@H](CO)NC(=O)[C@@H](Cc1csc2ccccc12)NC(=O)CCc1ccc(F)cc1)C(=O)N[C@@H](CCCNC(=N)N)C(=O)N1CCC[C@H]1C(=O)N[C@H](C)C(N)=O [Compound 198, (3-10)[N-(3-(4-Fluorophenyl)propionyl)-D-3-Bal^3 -NMeTyr^5 -D-Lys^6 (N-epsilon-isopropyl)-D-Ala^10]LHRH] ({Propanoyl(3-(4-F-phenyl))}-[dBta]S[NMeY][dLys(iPr)]LRP[dA]-NH2)"
17,8.32,"CC(C)C[C@H](NC(=O)[C@@H](CCCCN)NC(=O)[C@H](Cc1ccc(O)cc1)N(C)C(=O)[C@H](CO)NC(=O)[C@@H](Cc1cccc2ccccc12)NC(=O)CCc1ccc(F)cc1)C(=O)N[C@@H](CCCCNC(C)C)C(=O)N1CCC[C@H]1C(=O)N[C@H](C)C(N)=O [Compound 199, (3-10)[N-(3-(4-Fluorophenyl)propionyl)-D-1-Nal^3 -NMeTyr^5 -D-Lys^6 -Lys^8 (N-epsilon-isopropyl)-D-Ala^10]LHRH] ({Propanoyl(3-(4-F-phenyl))}-[d1Nal]S[NMeY][dK]L[Lys(iPr)]P[dA]-NH2)"
